Reference: US5571521A (priority 1995, dated 1996)
Like-named read-outs stand apart in the source and are kept apart here.

Assays:
host tissue = assay: Toxicity toward host tissue
Plasmopara viticola = assay: Control of grape downy mildew on plants; type: in vivo; conditions: for Percent Disease Control, Preventive: inoculated 24 hours after application; for Percent Disease Control, Curative: inoculated 24 hours before application
Seratia = assay: Inhibition of microorganism growth in Miller-Hinton broth (Minimal Inhibitory Concentration); type: cell-based, Serratia M.; conditions: Table 1, evaluated at 18 hours
Experimental: (§1) For each of the microorganisms listed below a culture was grown in Miller-Hinton broth (24 hour culture), and then diluted at a 1:100 ratio. This diluted culture was then grown for an additional two hours, after which the silver diphenyl hydantoin was added. […]

[1] = tested on: pure cultures of organisms; assay: Antibacterial action in pure cultures on blood agar plates; type: cell-based
Cercospora arachidicola = assay: Control of peanut leafspot on plants; type: in vivo; conditions: for Percent Disease Control, Preventive: inoculated 24 hours after application; for Percent Disease Control, Curative: inoculated 24 hours before application
Venturia inaequalis = assay: Control of apple scab on plants; type: in vivo; conditions: inoculated 24 hours after application
Phytophthora infestans = type: in vivo
Pseudomonas aeruginosa = assay: Inhibition of microorganism growth in Miller-Hinton broth (Minimal Inhibitory Concentration); type: cell-based; conditions: Table 1, evaluated at 18 hours
Experimental: as §1

Staphloccoccus aereus = assay: as above; type: cell-based; conditions: Table 1, evaluated at 18 hours
Experimental: as §1

Candida Albicans = assay: as above; type: cell-based; conditions: Table 1, evaluated at 18 hours
Experimental: as §1

[2] = tested on: Enterococcus (Group D Strep); assay: as above; type: cell-based; conditions: Table 1; 20 micrograms/ml; evaluated at 18 hours
Experimental: as §1

Klebsiella = assay: as above; type: cell-based; conditions: Table 1, evaluated at 18 hours
Experimental: as §1

“Silver Ammonium Diphenyl Hydantoin [Silver ammonium phenytoin]” was tested. Which “toxicity toward host tissue” value (host tissue) did it give?
The value was “low toxicity toward host tissue”.

What about the “Percent Disease Control, Preventive” value (Plasmopara viticola; 5 ppm) of the same substance?
Its value is 24%.

And the “Percent Disease Control, Curative” value (Plasmopara viticola; 5 ppm)?
The value was 0%.

And the “Percent Disease Control, Preventive” value (Plasmopara viticola; 20 ppm)?
The value was 49%.

What about the “Percent Disease Control, Curative” value (Plasmopara viticola; 20 ppm) of the same substance?
The value was 0%.

What about the “Percent Disease Control, Preventive” value (Plasmopara viticola; 100 ppm) of the same substance?
The value was 87%.

And the “Percent Disease Control, Curative” value (Plasmopara viticola; 100 ppm)?
Its value is 0%.

What about the “inhibition (Minimal Inhibitory Concentration table)” value (from here on “inhibition”) (Seratia; 10 micrograms/ml) of the same substance?
Its value is “+”.

And the “inhibition” value (Seratia; 20 micrograms/ml)?
The value was “+”.

And the “inhibition” value (Seratia; 40 micrograms/ml)?
Its value is “+”.

What about the Antibacterial action [1] of the same substance?
Its Antibacterial action is “Antibacterial action, was also demonstrated”.

What about the “Percent Disease Control, Preventive” value (Cercospora arachidicola; 5 ppm) of the same substance?
The value was 16%.

What about the “Percent Disease Control, Curative” value (Cercospora arachidicola; 5 ppm) of the same substance?
Its value is 0%.

And the “Percent Disease Control, Curative” value (Cercospora arachidicola; 20 ppm)?
The value was 0%.

What about the “Percent Disease Control, Preventive” value (Cercospora arachidicola; 100 ppm) of the same substance?
Its value is 78%.

What about the “Percent Disease Control, Curative” value (Cercospora arachidicola; 100 ppm) of the same substance?
Its value is 60%.

What about the “Percent Disease Control, Preventive” value (Venturia inaequalis; 5 ppm) of the same substance?
Its value is 17%.

What about the “Percent Disease Control, Preventive” value (Venturia inaequalis; 20 ppm) of the same substance?
The value was 95%.

And the “Percent Disease Control, Preventive” value (Venturia inaequalis; 100 ppm)?
The value was 98%.

What about the “Percent Disease Control” value (Phytophthora infestans; 5 ppm) of the same substance?
Its value is 17%.

What about the “Percent Disease Control” value (Phytophthora infestans; 20 ppm) of the same substance?
The value was 95%.

What about the “Percent Disease Control” value (Phytophthora infestans; 100 ppm) of the same substance?
The value was 98%.

What about the “inhibition” value (Pseudomonas aeruginosa; 20 micrograms/ml) of the same substance?
The value was “+”.

What about the “inhibition” value (Pseudomonas aeruginosa; 40 micrograms/ml) of the same substance?
The value was “+”.

What about the “inhibition” value (Staphloccoccus aereus; 20 micrograms/ml) of the same substance?
Its value is “+”.

And the “inhibition” value (Staphloccoccus aereus; 40 micrograms/ml)?
Its value is “+”.

What about the “inhibition” value (Candida Albicans; 20 micrograms/ml) of the same substance?
The value was “+”.

And the “inhibition” value (Candida Albicans; 40 micrograms/ml)?
The value was “+”.

And the “inhibition” value [2]?
The value was “+”.

What about the “inhibition” value (Klebsiella; 1 microgram/ml) of the same substance?
The value was “+”.

What about the “inhibition” value (Klebsiella; 10 micrograms/ml) of the same substance?
The value was “+”.

And the “inhibition” value (Klebsiella; 20 micrograms/ml)?
The value was “+”.
